Results taken from patent US20210251910A1, “FUMARIC ACID COMPOSITIONS WITH INCREASED BIOAVAILABILITY AND REDUCED SIDE EFFECTS” (Vitalis LLC, priority 2018, published 2021).

Legend:
[1] = pretreatment with 325 mg aspirin for 4 days; Sheikh et al., Clin Ther. 2013; cited from earlier work
[2] = Example 1: flush rating (Global Flush Severity Scale) after DMF without aspirin, with swallowed aspirin or with intraoral aspirin; assay type: in vivo, human; conditions: MS patients
Method: Seven human patients with multiple sclerosis who were already taking dimethyl fumarate and had experienced flushing side effects from dimethyl fumarate were recruited for this study. […] In Period I, each patient was given their standard dose of 240 mg dimethyl fumarate orally. Each patient was asked to rate his or her flush on the Global Flush Severity Scale (GFSS) (see Paolini et al. Int. J. Clin. Pract. 62(6):896-904 (2008)), when the flush completely resolved. The Global Flushing Severity Score measures, overall, in the previous 24 hours, how each patient rates the flushing symptoms, including redness, warmth, tingling, and itchiness of the skin. […] After the flush completely resolved, then each patient recorded his or her GFSS flush rating. Not until at least two days later did Period III start. At Period III, each patient was asked to not swallow the orally administered aspirin (162 mg) but to allow the aspirin to be absorbed through the oral mucosa. The aspirin was in powdered form and the remaining aspirin in the mouth was washed out with water. Afterwards, 240 mg of dimethyl fumarate was swallowed with a glass of water. Still, the flush was rated (GFSS) after it was resolved.

[3] = Example 2: flushing assessment in crossover study, VTS-72 vs Tecfidera; assay type: in vivo, human; conditions: Example 2 conclusion, co-administration of aspirin
Method: This was a single center, pilot, comparative bioavailability, open-label, randomized, single-dose, 2-period, 2-sequence, crossover study under fasting conditions. A total of 12 healthy adult male or female volunteers were included in this pilot study. For each period, subjects were confined from at least 10 hours before dosing until 12 hours post-dose. There was a washout of 7 days or more between doses. The washout period could be increased for logistical considerations. Participation of each subject in this study lasted approximately 9 days. Subjects were administered each treatment according to the 2-period, 2-sequence, block randomization scheme.
Treatment A: Subjects were required not to wear dentures or to remove their tongue piercing at the time of dosing. The delayed-release capsules were placed on the subject's tongue. Subjects were instructed to suck the delayed-release capsule until the acetylsalicylic acid coating was dissolved or up to a maximum of 1 minute after the delayed-release capsule had been placed on the subject's tongue. […]
Flushing (including redness, warmth, tingling, and itchiness of the skin) was assessed at 0.5, 1, 1.5, 2, 2.5, 3, 3.5, and 4 hours post-dose using the question and the rating scale presented in Section—Flushing Assessment below. […] Flushing symptoms were recorded as adverse events.
Flushing was assessed using the question below. […]

[4] = Example 3: flushing side effect, VTS-72 (205 mg DMF) vs Tecfidera; assay type: in vivo, human; conditions: Example 3, co-administration of aspirin
Method: Flushing (including redness, warmth, tingling, and itchiness of the skin) was assessed at 0.5, 1, 1.5, 2, 2.5, 3, 3.5, and 4 hours post-dose using the question and the rating scale presented in Section—Flushing Assessment below. Half grades were not assigned. Flushing symptoms were recorded as adverse events.
Flushing was assessed using the question below. The question was asked by the clinical staff: • Question 1: Overall, at this moment, how would you rate your flushing symptoms (including redness, warmth, tingling, and itchiness of the skin)? Score from 0 to 10 (none 0, mild 1 to 3, moderate 4 to 6, severe 7 to 9, extreme 10).
16 healthy individuals were enrolled for this study.

[5] = Example 2: comparative bioavailability, monomethyl fumarate plasma pharmacokinetics; assay type: in vivo, human; conditions: normalized to 180 mg DMF
Method: The delayed-release capsules were placed on the subject's tongue. Subjects were instructed to suck the delayed-release capsule until the acetylsalicylic acid coating was dissolved or up to a maximum of 1 minute after the delayed-release capsule had been placed on the subject's tongue. The delayed-release capsule should not be chewed, bitten, or swallowed during that 1-minute period or until the coating is dissolved; only the saliva could be swallowed. The subject was instructed to give a hand sign once the acetylsalicylic acid coating was dissolved (the capsule should feel and taste different). […]

For `CC(=O)Oc1ccccc1C(=O)O` [aspirin, acetylsalicylic acid], the “effect of aspirin pretreatment on the pharmacokinetic profile of DMF” value [1] is given as “did not affect”, the “reduction of severity of flush (GFSS) as compared to Period I” value ([2]; Period II: 162 mg aspirin orally swallowed followed by 240 mg dimethyl fumarate) is given as 33% and the “reduction of severity of flush (GFSS) as compared to Period I” value ([2]; Period III: 162 mg aspirin absorbed through the oral mucosa, then 240 mg dimethyl fumarate) is given as 52%. For the same compound, the “reduction of the flushing side effect” value [3] was “more than 35%”, the “reduction of the flushing side effect” value [4] was “about 61%” and the “impact of co-administration of aspirin on the Cmax of DMF” value [5] was “did not have significant impact”.
